The NIST ThermoML archive (doi:10.1016/j.fluid.2004.11.019)
Numbers after ± are expanded uncertainties.

Conditions: Liquid

CCO [ethanol]
mass density (298.15 K, 100 kPa): 785.7 ± 0.4 kg/m3 | mass density (298.15 K, 10000 kPa): 794 ± 0.4 kg/m3 | mass density (298.15 K, 20000 kPa): 801.9 ± 0.6 kg/m3 | mass density (298.15 K, 30000 kPa): 808.9 ± 0.7 kg/m3 | mass density (298.15 K, 40000 kPa): 815.7 ± 0.8 kg/m3 | mass density (323.15 K, 100 kPa): 763.7 ± 0.4 kg/m3 | mass density (323.15 K, 10000 kPa): 773.4 ± 0.5 kg/m3 | mass density (323.15 K, 20000 kPa): 782.3 ± 0.6 kg/m3 | mass density (323.15 K, 30000 kPa): 790.3 ± 0.7 kg/m3 | mass density (323.15 K, 40000 kPa): 797.7 ± 0.9 kg/m3 | mass density (348.15 K, 100 kPa): 739.4 ± 0.4 kg/m3 | mass density (348.15 K, 10000 kPa): 751.2 ± 0.5 kg/m3 | mass density (348.15 K, 20000 kPa): 761.2 ± 0.6 kg/m3 | mass density (348.15 K, 30000 kPa): 770.3 ± 0.8 kg/m3 | mass density (348.15 K, 40000 kPa): 778.6 ± 0.9 kg/m3
